Tests used:
Conditions in all cases: read-out: IZ
Staphylococcus aureus = assay: Antibacterial activity against Staphylococcus aureus at 1 ug/disc after 24 to 48 hrs
Escherichia coli = assay: Antibacterial activity against Escherichia coli at 1 ug/disc after 24 to 48 hrs
Pseudomonas aeruginosa = assay: Antibacterial activity against Pseudomonas aeruginosa at 1 ug/disc after 24 to 48 hrs
Bacillus subtilis = assay: Antibacterial activity against Bacillus subtilis at 1 ug/disc after 24 to 48 hrs
Candida albicans = assay: Antifungal activity against Candida albicans at 10 ug/disc after 24 to 48 hrs; assay type: functional

## O=C(O)c1cn(C2CC2)c2cc(N3CCNCC3)c(F)cc2c1=O [CIPROFLOXACIN]
Staphylococcus aureus
  zone of inhibition at 1 µg/disc: 16 mm
Escherichia coli
  zone of inhibition at 1 µg/disc: 16 mm
Pseudomonas aeruginosa
  zone of inhibition at 1 µg/disc: 17 mm
Bacillus subtilis
  zone of inhibition at 1 µg/disc: 17 mm

## Clc1ccccc1C(c1ccccc1)(c1ccccc1)n1ccnc1 [CLOTRIMAZOLE]
Candida albicans
  zone of inhibition at 10 µg/disc: 12 mm

Reference: ChEMBL document CHEMBL1158166, “DNA binding and biological studies of some novel water-soluble polymer-copper(II)-phenanthroline complexes” (2008)
